Measured values published in US9060966B2, “Use of 2,5-dihydroxybenzene derivatives for the treatment of arthritis and pain” (priority 2006, dated 2015).
“Also recorded” adds a separate entry of the source.

What was measured:
Leishmania major = assay: Experimental infection with Leishmania major in a mouse model (paw thickness); type: in vivo, mice
From the text: The vehicle group consisted of infected animals that received daily injections of saline (0.9% NaCl) during the same period as DHBS. Results are expressed as the mean±the standard deviation of the increases in size of the inoculated paw (right) compared to the non-inoculated paw (left) in mm obtained with a Vernier caliper each week from 0 to 10. ** indicates p<0.01 vs. the vehicle-treated group by a Student t-test. 6 animals were used for each group.
The vehicle group consisted of infected animals that received daily injections of saline (0.9% NaCl) from the moment of the infection, while the control group consisted of non-infected animals. Results are expressed as the mean±the standard deviation of the increases in size of the inoculated paw (right) compared to the non-inoculated paw (left) in mm obtained with a Vernier caliper each week from 0 to 9. * indicates p<0.05 vs. the vehicle group by a Student t-test. 7 animals were used for each group.
The vehicle group consisted of infected animals that received daily injections of saline (0.9% NaCl) from the third week after the infection. Results are expressed as the mean±the standard deviation of the increases in size of the inoculated paw (right) compared to the non-inoculated paw (left) in mm obtained with a Vernier caliper each week from 0 to 9. * indicates p<0.05 vs. the vehicle group by a Student t-test. 7 animals were used for each group.
This model is based in the massive inoculation of Leishmania promatigotes in the mouse paw pad. Under these conditions, the parasite induces a progressive inflammation correlated with the multiplication of parasites at the site of inoculation. BALB/c strain female mice that developed severe and uncontrolled injuries were used (Foote S J, Handman E. Brief Funct Genomic Proteomic, 2005). This model has been used in pharmacology to monitor the therapeutic capacity of new leishmanicide compounds and the preventive capacity of potential vaccines against leishmaniasis ((Nelson K G et al. Antimicrob Agents Chemother. 2006).
The animals were inoculated with 5×10^6 of L. major promastigotes (strain Hervás) in 50 μL of PBS into the plantar pad of the right back paw. As negative control of the infection, a group of mice inoculated with 50 μL of PBS was used. The sizes of the lesions were measured every 7 days until the animals were sacrificed (week 9) using a Vernier caliper. The thickness of the right back paw (infected) and the left back paw (uninfected) of all the animals was measured at the base of the fifth toe. The progression of the inflammation is represented as the difference in thickness between the infected and the non-infected paws. […]

skeletal muscle lesions = assay: Oral treatment of skeletal muscle and tendon lesions in patients (MRI, function); type: in vivo, human
Protocol: A and B are, respectively, front and cross sectional magnetic resonance images (MRI) showing the breaking of the left quadriceps in a patient, immediately before treatment. The presence of a large hematoma, indicated by arrows, may be observed. C and D are, respectively, front and cross sectional MRI showing the quadriceps of the same patient after treatment with 2,5-dihydroxybenzene sulfonic acid (DHBS) (500 mg/day p.o. for two weeks). […] 1 indicates the femur and 2 indicates the femoral vessels.
A is a Magnetic Resonance Image (MRI) of a patient showing the breaking of the right arm brachial biceps one day after the lesion and immediately before the treatment.
Images show the clinical manifestation of the patient referred to in FIG. 12. Before the treatment (1 day after the lesion) a large hematoma (A) and limited flexion (B) and extension (C) of the elbow are observed.
It is a Magnetic Resonance Image (MRI) of a patient showing the breaking of left leg semitendinosus muscle 9 days after the lesion and immediately before starting the treatment.
A is a Magnetic Resonance Image (MRI) of a patient showing the Achilles tendon rupture just before being treated.
The capacity of a 2,5-dihydroxybenzene derivative, the 2,5-dihydroxybenzene sulfonic acid (DHBS) to effectively treat skeletal muscle lesions is shown herein. The efficacy is evident, not only in the images of conventional diagnosis that show the recovery of the muscular damage, but also there is a clear functional recovery of the affected limb.
The first patient's left quadriceps was broken by practicing sports. […] At that moment, the patient starts a daily oral treatment with 500 mg of 2,5-dihydroxybenzene sulfonic acid (DHBS) for two weeks. […] An observation that may be applied to the other cases that support this example.
Other patient has an hematoma and muscular breaking of the brachial biceps, as shown in the magnetic resonance image (MRI) of FIG. 12A. The hematoma can be appreciated externally (FIG. 13A) and the lesion, produced by professional practice (dancing) the day before the consultation, limits the elbow flexion (FIG. 13B) and extension (FIG. 13C).

[1] = brachial biceps breaking, 1500 mg/day p.o., 20 days, one patient
[2] = left quadriceps breaking, 500 mg/day p.o., two weeks, one patient

CC(=O)Oc1ccc(OC(C)=O)c(S(=O)(=O)[O-])c1.[K+] [DABS, potassium 2,5-diacetoxybenzene sulfonate]
size of the lesion (infected vs non-infected paw) (Leishmania major; 200 mg/kg/day i.p. from day 0 to week 9, effect from the third week post-infection): statistically significant reduction in the size of the lesion | size of the lesion (infected vs non-infected paw) (Leishmania major; 200 mg/kg/day i.p. from third week after inoculation, effect from the eighth week): significantly smaller; also recorded: Reduction in the size of the lesion

O=S(=O)(O)c1cc(O)ccc1O [DHBS, 2,5-dihydroxybenzenesulfonic acid]
semitendinosus muscle lesion on MRI (skeletal muscle lesions; 1500 mg/day p.o., 11 days, started 9 days after lesion, one patient): reduced the muscular lesion; also recorded: remarkable reduction in the size of the lesion | Achilles tendon lesion on MRI (skeletal muscle lesions; 1500 mg/day p.o., two months, one patient): marked reduction of said lesion; also recorded: remarkable reduction in the size of the lesion | elbow flexion and extension (skeletal muscle lesions; [1]): recovers the functionality of the elbow flexion and extension; also recorded: have been recovered | size of the lesion and of the hematoma, brachial biceps (skeletal muscle lesions; [1]): markedly reduces the size of the lesion and of the hematoma; also recorded: remarkable reduction in the size of the lesion; also recorded: the hematoma has disappeared | quadriceps hematoma on MRI (skeletal muscle lesions; [2]): can no longer be observed; also recorded: the hematoma has disappeared | quadriceps lesion on MRI (skeletal muscle lesions; [2]): recovery of the lesion in the quadriceps | period to functional recovery and resolution vs conventional treatments (antiinflammatories) (skeletal muscle lesions; quadriceps breaking, 500 mg/day p.o., two weeks): shorter period | flexion and extension capacity of the leg (skeletal muscle lesions; quadriceps breaking, 500 mg/day p.o., two weeks, one patient): able to extend the left leg almost completely; also recorded: almost complete flexion (A) and extension (B) capacity
